# Legend:
# [1] = tested on: Early Watergrass, Echinochloa oryzoides (ECHOR); test: In-water application in transplanted rice in the greenhouse, visual weed control of ECHOR; format: in vivo; settings: 22 days after application, 0-100 scale
# Excerpt: (§1) Weed seeds or nutlets of the desired test plant species were planted in puddled soil (mud) prepared by mixing a shredded, non-sterilized mineral soil (50.5 percent silt, 25.5 percent clay, and 24 percent sand, with a pH of about 7.6 and an organic matter content of about 2.9 percent) and water at a 1:1 volumetric ratio. The prepared mud was dispensed in 365 milliliter (mL) aliquots into 16-ounce (oz.) non-perforated plastic pots with a surface area of 86.59 square centimeters (cm^2) leaving a headspace of 3 centimeters (cm) in each pot. Rice seeds were planted in Sun Gro MetroMix® 306 planting mixture, which typically has a pH of 6.0 to 6.8 and an organic matter content of about 30 percent, in plastic plug trays. Seedlings at the second or third leaf stage of growth were transplanted into 860 mL of mud contained in 32-oz. non-perforated plastic pots with a surface area of 86.59 cm^2 4 days prior to herbicide application. The paddy was created by filling the headspace of the pots with 2.5 to 3 cm of water. When required to ensure good germination and healthy plants, a fungicide treatment and/or other chemical or physical treatment was applied. The plants were grown for 4-22 days in a greenhouse with an approximate 14 hour (h) photoperiod which was maintained at about 29° C. during the day and about 26° C. during the night. Nutrients were added as Osmocote® (17:6:10, N:P:K+minor nutrients) at 2 grams (g) per 16-oz. pot and 4 g per 32-oz. pot. Water was added on a regular basis to maintain the paddy flood, and supplemental lighting was provided with overhead metal halide 1000-Watt lamps as necessary. The plants were employed for testing when they reached the first through fourth true leaf stage. Treatments of penoxsulam and benzobicyclon consisted of penoxsulam and benzobicyclon, applied alone or in combination. Treatments of clomazone and benzobicyclon consisted of clomazone and benzobicyclon, applied alone or in combination. Penoxsulam was formulated as Grasp® SC, clomazone was formulated as Command® 3ME, and benzobicyclon was formulated as 3.5% flowable or as technical grade material. Treatment requirements for each compound or herbicidal component were calculated based upon the rates being tested, the concentration of active ingredient or acid equivalent in the formulation, an application volume of 2 mL per component per pot, and an application area of 86.59 cm^2 per pot. For formulated compounds, a measured amount was placed in an individual 100 or 200 mL glass vial and was dissolved in a volume of 1.25% volume per volume (v/v) Agri-Dex® crop oil concentrate to obtain application solutions. […] The results measured at 22 days following application of the compositions are provided in Table 1 (Penoxsulam and Benzobicyclon) and Table 2 (Clomazone and Benzobicyclon).
# [2] = tested on: Purple Nutsedge, Cyperus rotundus (CYPRO); test: In-water application in transplanted rice in the greenhouse, visual weed control of CYPRO; format: in vivo; settings: 22 days after application, 0-100 scale
# Excerpt: as §1, with “Nutrients were added as Osmocote® (17:6:10, N:P:K+minor nutrients) at 2 grams (g) per 16-oz. pot and 4 g per 32-oz. pot. Water was added on a regular basis to maintain the paddy flood, and supplemental lighting was provided with overhead metal halide 1000-Watt lamps as necessary. The plants were employed for testing when they reached the first through fourth true leaf stage. Treatments of penoxsulam and benzobicyclon consisted of penoxsulam and benzobicyclon, applied alone or in combination. Treatments of clomazone and benzobicyclon consisted of clomazone and benzobicyclon, applied alone or in combination. Penoxsulam was formulated as Grasp® SC, clomazone was formulated as Command® 3ME, and benzobicyclon was formulated as 3.5% flowable or as technical grade material.” left out
# [3] = Benzobicyclon 100 g ai/ha alone
smiles,measurement,setting,value
COc1cnc(OC)n2nc(NS(=O)(=O)c3c(OCC(F)F)cccc3C(F)(F)F)nc12 [Penoxsulam],% Visual Weed Control 22DAA ECHOR Observed,[1]; Penoxsulam 10 g ai/ha alone,85%
"CS(=O)(=O)c1ccc(C(=O)C2=C(Sc3ccccc3)C3CCC(C3)C2=O)c(Cl)c1 (stereo not shown) [Benzobicyclon, 3-(2-chloro-4-mesylbenzoyl)-2-phenylthiobicyclo[3.2.1]oct-2-en-4-one]",% Visual Weed Control 22DAA CYPRO Observed,[2]; Benzobicyclon 50 g ai/ha alone,10%
same,% Visual Weed Control 22DAA CYPRO Observed,[2]; [3],30%
same,% Visual Weed Control 22DAA ECHOR Observed,[1]; Benzobicyclon 25 g ai/ha alone,0%
same,% Visual Weed Control 22DAA ECHOR Observed,[1]; Benzobicyclon 50 g ai/ha alone,10%
same,% Visual Weed Control 22DAA ECHOR Observed,[1]; [3],15%
"CC1(C)CON(Cc2ccccc2Cl)C1=O [Clomazone, 2-[(2-chlorophenyl)methyl]-4,4-dimethyl-3-isoxazolidinone]",% Visual Weed Control 22DAA CYPRO Observed,[2]; Clomazone 112 g ai/ha alone,0%

# From patent publication US10701934B2, “Synergistic weed control from applications of penoxsulam and benzobicyclon or clomazone and benzobicyclon” (Dow AgroSciences LLC, priority 2013, dated 2020)
